IC50 data for 32 molecules are collected here from US8415469B2, “Compounds and methods for kinase modulation, and indications therefor” (Plexxikon Inc., priority 2005, dated 2013).

Where only a bound is given, the exact number is not on record here.

What all share (assay type): biochemical
The target in one experiment is T1, B-Raf V600E (Homo sapiens, UniProt P15056, V600E).
T1 construct: P4254. pFastBacBD-CDC37 BRAF D437-K722-X, V600E; His6 with pFastBac HT leader (TEV site) (N); made in house; host or cells: Sf9 (baculovirus; chaperone CDC37 co-expressed)
Put plainly: AlphaScreen kinase assay, B-Raf V600E. Conditions: read-out: IC50, activity toward kinase B-Raf V600E.

The target in the next experiment is T2, Stk6 (Homo sapiens, UniProt O14965).
T2 construct: purchased Invitrogen (Carlsbad, Calif.), screening service
T2 sequence (O14965 1-403): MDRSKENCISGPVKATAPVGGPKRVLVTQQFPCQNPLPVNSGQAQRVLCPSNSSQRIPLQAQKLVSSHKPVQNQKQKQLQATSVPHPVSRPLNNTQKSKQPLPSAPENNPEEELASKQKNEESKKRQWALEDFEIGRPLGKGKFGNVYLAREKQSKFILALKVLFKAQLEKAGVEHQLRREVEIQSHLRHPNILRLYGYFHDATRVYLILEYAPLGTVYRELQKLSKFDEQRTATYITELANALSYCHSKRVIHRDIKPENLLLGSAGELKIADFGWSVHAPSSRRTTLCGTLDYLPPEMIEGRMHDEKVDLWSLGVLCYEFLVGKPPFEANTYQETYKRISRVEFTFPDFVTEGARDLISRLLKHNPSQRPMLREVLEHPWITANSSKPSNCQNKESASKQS
Put plainly: Z'-Lyte FRET kinase assay (Invitrogen), Stk6. Conditions: read-out: IC50, activity toward kinase Stk6.

Another experiment has as its target T3, Kit (Homo sapiens, UniProt P10721).
T3 construct: P1332.N6 BI PTP KIT M552-K948-X COD; His6 (N); made in house; host or cells: E. coli (PTP1B co-expressed)
Put plainly: AlphaScreen kinase assay, Kit. Conditions: read-out: IC50, activity toward kinase Kit. Background: Alpha assays give light when donor and acceptor beads are brought close together.

A further experiment deals with T4, FGFR1 (Homo sapiens, UniProt P11362, C488A/C584S).
T4 construct: P1351.pET N6 BI-PTP FGFR A458-E765-X C488A, C584S; made in house; host or cells: E. coli (PTP1B co-expressed)
Nature of the experiment: AlphaScreen kinase assay, FGFR1. The note with it: read-out: IC50, activity toward kinase FGFR.

The target of another experiment is T5, Fms (Homo sapiens, UniProt P07333).
T5 construct: purchased Upstate Biotechnology
Nature of the experiment: AlphaScreen kinase assay, Fms. Conditions: read-out: IC50, activity toward kinase Fms.

Another experiment concerns the target T6, c-Raf-1 (Homo sapiens, UniProt P04049).
T6 construct: purchased Upstate Biotechnology
Put plainly: AlphaScreen kinase assay, c-Raf-1. The note with it: read-out: IC50, activity toward kinase c-Raf-1.

The target of a further experiment is T7, Jnk1 (Homo sapiens, UniProt P45983).
T7 construct: purchased Upstate Biotechnology
Put plainly: AlphaScreen kinase assay, Jnk1. Conditions: read-out: IC50, activity toward kinase Jnk1.

The target of another experiment is T8, B-Raf (Homo sapiens, UniProt P15056).
T8 construct: purchased Upstate Biotechnology
Put plainly: AlphaScreen kinase assay, B-Raf. Conditions: read-out: IC50, activity toward kinase B-Raf.

The target in the next experiment is T9, Src (Homo sapiens, UniProt P12931).
T9 construct: P1144. pET-N6 BI-PTP SRC V86-L536-X; made in house
Put plainly: AlphaScreen kinase assay, Src. The note with it: read-out: IC50, activity toward kinase Src.

In the next experiment the target is T10, Flt1 (Homo sapiens, UniProt P17948).
T10 construct: P1826.pETN6 BI-PTP FLT1 M799-D1165-X WT; His6 (N); made in house; host or cells: E. coli (PTP1B co-expressed)
T10 sequence (P17948 with tags, fused parts or gaps): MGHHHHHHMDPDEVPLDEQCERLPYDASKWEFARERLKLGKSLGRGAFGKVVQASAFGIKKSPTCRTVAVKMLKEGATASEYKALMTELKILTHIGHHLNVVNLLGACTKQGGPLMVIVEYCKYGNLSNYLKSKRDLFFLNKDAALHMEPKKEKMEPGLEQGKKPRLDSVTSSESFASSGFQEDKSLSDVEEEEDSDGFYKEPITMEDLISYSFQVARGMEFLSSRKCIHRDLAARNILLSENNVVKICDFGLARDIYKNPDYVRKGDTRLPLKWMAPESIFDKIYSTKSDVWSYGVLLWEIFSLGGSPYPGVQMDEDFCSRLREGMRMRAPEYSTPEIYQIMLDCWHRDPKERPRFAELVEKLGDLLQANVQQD
Put plainly: AlphaScreen kinase assay, Flt1. Conditions: read-out: IC50, activity toward kinase Flt1.

T3 sequence (P10721 with tags, fused parts or gaps): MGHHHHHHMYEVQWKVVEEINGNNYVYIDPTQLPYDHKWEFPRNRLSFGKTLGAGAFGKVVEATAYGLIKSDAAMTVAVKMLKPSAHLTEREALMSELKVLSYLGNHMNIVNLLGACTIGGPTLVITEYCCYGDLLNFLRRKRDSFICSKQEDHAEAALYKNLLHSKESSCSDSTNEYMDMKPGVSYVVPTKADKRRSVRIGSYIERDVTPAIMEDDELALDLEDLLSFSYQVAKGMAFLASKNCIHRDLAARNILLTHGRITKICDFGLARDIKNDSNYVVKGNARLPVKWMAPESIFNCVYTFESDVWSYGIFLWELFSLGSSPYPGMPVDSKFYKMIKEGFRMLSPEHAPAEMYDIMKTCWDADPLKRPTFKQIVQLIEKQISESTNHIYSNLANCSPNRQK
T9 sequence (P12931 with tags, fused parts or gaps): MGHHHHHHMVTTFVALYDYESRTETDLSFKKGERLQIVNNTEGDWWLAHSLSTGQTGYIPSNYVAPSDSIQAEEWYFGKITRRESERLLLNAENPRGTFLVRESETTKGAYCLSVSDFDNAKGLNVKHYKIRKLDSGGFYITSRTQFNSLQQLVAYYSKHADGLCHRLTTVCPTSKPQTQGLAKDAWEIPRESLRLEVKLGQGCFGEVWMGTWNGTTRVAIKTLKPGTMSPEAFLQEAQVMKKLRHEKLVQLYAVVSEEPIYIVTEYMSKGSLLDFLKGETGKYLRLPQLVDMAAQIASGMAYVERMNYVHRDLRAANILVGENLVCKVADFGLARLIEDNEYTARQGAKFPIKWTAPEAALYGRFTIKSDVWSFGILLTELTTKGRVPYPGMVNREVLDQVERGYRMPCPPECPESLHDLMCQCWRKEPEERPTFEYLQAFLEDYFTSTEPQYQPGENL
T4 sequence (P11362 458-765 C488A/C584S): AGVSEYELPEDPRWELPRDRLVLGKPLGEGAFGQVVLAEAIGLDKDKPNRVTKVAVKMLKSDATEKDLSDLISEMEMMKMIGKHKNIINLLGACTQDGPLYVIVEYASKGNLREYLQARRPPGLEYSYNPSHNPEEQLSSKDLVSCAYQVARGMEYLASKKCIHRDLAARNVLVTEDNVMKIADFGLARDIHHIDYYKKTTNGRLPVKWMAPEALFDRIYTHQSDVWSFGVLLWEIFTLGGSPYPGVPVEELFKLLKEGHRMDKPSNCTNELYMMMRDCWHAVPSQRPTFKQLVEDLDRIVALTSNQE
T1 sequence (P15056 with tags, fused parts or gaps V600E): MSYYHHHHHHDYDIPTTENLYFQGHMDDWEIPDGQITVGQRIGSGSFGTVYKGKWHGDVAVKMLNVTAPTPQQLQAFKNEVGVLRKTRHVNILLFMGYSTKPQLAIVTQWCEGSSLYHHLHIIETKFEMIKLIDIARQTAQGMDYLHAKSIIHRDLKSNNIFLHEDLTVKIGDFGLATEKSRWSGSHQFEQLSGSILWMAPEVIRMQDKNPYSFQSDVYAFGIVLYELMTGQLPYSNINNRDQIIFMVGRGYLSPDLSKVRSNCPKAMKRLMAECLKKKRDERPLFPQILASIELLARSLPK
T7 sequence (P45983 whole entry): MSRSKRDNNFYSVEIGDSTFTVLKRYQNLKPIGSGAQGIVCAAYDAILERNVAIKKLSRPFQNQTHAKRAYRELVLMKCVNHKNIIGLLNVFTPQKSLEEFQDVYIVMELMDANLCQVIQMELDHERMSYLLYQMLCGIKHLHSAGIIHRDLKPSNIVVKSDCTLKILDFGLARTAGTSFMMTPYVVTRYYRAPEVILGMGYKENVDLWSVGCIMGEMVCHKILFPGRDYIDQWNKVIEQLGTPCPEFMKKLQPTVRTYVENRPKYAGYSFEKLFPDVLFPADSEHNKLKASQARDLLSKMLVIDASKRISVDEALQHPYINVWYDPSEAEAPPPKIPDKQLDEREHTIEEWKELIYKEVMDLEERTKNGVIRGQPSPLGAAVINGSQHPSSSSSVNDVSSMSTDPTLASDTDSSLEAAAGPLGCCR
T5 sequence (P07333 20-972): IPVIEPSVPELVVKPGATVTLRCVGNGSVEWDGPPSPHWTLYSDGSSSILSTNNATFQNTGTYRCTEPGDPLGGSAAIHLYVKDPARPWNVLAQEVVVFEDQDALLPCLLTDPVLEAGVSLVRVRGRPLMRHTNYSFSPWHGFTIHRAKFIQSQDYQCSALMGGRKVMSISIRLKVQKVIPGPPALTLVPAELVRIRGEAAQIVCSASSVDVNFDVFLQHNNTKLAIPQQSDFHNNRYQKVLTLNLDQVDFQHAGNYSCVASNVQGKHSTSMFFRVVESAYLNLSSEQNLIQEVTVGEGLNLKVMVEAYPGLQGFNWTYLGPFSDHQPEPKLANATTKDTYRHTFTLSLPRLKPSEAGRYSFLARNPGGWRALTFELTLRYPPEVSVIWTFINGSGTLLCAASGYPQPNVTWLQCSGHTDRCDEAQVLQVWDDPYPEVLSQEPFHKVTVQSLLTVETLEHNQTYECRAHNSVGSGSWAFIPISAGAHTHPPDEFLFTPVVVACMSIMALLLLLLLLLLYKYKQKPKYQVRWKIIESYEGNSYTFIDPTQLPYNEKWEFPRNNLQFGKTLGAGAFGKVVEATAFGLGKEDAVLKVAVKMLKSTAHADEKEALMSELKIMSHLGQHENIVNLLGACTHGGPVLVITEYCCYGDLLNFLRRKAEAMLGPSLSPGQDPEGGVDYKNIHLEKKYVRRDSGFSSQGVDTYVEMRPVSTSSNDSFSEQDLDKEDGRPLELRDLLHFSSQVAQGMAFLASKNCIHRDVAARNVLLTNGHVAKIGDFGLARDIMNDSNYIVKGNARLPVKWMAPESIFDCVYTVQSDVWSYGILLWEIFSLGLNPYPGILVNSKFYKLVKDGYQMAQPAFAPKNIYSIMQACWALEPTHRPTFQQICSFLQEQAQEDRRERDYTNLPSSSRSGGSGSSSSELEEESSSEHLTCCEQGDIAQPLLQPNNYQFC
T8 sequence (P15056 whole entry): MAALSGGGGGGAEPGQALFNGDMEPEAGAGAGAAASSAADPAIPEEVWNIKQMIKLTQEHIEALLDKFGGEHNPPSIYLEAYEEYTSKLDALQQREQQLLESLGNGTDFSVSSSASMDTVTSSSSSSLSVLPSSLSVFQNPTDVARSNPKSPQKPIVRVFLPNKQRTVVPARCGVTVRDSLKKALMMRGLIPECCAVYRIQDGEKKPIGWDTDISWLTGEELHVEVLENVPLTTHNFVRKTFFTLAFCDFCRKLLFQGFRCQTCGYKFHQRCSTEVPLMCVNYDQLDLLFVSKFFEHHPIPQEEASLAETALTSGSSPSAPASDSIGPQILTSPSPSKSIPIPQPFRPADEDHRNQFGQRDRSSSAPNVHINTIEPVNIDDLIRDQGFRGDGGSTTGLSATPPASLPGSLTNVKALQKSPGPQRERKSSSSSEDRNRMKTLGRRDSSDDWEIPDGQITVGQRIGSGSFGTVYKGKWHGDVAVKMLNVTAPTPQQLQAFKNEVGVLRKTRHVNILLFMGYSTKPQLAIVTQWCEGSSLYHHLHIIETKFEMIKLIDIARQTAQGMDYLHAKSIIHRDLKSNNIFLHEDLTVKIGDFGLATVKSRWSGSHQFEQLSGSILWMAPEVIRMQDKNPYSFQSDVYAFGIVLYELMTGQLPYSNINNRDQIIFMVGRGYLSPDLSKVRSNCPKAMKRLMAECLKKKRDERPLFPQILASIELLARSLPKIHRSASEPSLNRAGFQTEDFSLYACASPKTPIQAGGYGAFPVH
T6 sequence (P04049 whole entry): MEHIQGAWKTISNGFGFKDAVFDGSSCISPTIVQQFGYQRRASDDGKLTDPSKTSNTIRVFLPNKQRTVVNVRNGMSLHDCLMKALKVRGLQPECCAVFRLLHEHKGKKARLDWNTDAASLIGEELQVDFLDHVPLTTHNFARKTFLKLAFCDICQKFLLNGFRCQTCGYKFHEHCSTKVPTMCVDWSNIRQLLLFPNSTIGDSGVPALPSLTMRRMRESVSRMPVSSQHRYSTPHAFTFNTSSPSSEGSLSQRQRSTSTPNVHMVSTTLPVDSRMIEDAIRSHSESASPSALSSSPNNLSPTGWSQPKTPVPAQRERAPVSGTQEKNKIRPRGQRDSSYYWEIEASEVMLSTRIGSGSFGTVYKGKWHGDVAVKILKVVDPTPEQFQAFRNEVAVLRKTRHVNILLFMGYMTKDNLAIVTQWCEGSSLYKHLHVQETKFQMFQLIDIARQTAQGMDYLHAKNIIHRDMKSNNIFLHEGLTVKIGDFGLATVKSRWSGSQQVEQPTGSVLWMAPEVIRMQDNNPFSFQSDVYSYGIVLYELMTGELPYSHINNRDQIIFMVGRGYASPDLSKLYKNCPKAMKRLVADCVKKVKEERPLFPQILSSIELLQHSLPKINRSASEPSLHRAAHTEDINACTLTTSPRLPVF

As for `CN(c1ccccc1)c1ccnc2[nH]ccc12` [Compound P-0118], the IC50 at B-Raf V600E and at Stk6 was no more than 10 µM in each case.
Turning to `Cc1cccc(N(C)c2ccnc3[nH]ccc23)c1` [Compound P-0155], the IC50 on Stk6 is no more than 10 µM.
`COc1cccc(-c2ccnc3[nH]cc(Sc4cccs4)c23)c1` [Compound P-0160]: the half-maximal inhibitory concentration (IC50) on B-Raf V600E and at Stk6 was no more than 10 µM throughout.
`CC(C)CNc1ccc(C(O)c2c[nH]c3ncccc23)cn1` (stereo not shown) [Compound P-0185]: the half-maximal inhibitory concentration (IC50) on B-Raf V600E and at Stk6 was no more than 10 µM throughout.
With `Cc1ccsc1Cc1c[nH]c2ncccc12` [Compound P-0191], the IC50 on B-Raf V600E and at Stk6 was no more than 10 µM each time.
As to `Brc1c[nH]c2ncccc12` [Compound P-0201], at Stk6, the half-inhibitory concentration (IC50) is no more than 10 µM.
As for `COc1cccc(NC(=S)N2CCC(C(=O)c3c[nH]c4ncccc34)CC2)c1` [Compound P-0208], the IC50 on B-Raf V600E and at Stk6 was no more than 10 µM throughout.
Turning to `c1ccc(Nc2c[nH]c3ncccc23)cc1` [Compound P-0221, N-phenyl-1H-pyrrolo[2,3-b]pyridin-3-amine], the IC50 on Stk6 was no more than 10 µM.
On to `O=C(c1cccc(F)c1)c1ccc(-c2cnc3[nH]ccc3c2)s1` [Compound P-0235], for which the concentration for half-maximal inhibition (IC50) at Stk6 and on Kit was no more than 10 µM in each case.
As for `CC(C)CNc1ccc(C(=O)c2c[nH]c3ncccc23)cn1` [Compound P-0251], the IC50 on Stk6 was no more than 10 µM.
Take `c1csc(-c2c[nH]c3ncccc23)c1` [Compound P-0253]: the IC50 on Stk6 and at Kit was no more than 10 µM in each case.
Regarding `O=C1c2ccccc2C(=O)N1Cc1ccc(-c2cnc3[nH]ccc3c2)cc1` [Compound P-0281], the IC50 on Stk6 is no more than 10 µM.
Regarding `FC(F)(F)c1cccc(-c2ccnc3[nH]cc(Sc4ccccn4)c23)c1` [Compound P-0290], the half-maximal inhibitory concentration (IC50) on Stk6 was no more than 10 µM.
As to `O=C(c1ccc(Nc2cccc(OCc3ccccc3)c2)nc1)c1c[nH]c2ncccc12` [Compound P-0355], the half-maximal inhibitory concentration (IC50) at B-Raf V600E and at Stk6 was no more than 10 µM each time.
For the molecule `N#Cc1ccnc2[nH]cc(Sc3cccs3)c12` [Compound P-0370], on Stk6, the 50% inhibitory concentration (IC50) was no more than 10 µM.
For `c1cc2cc(-c3ccoc3)cnc2[nH]1` [Compound P-0372], the IC50 at Stk6 was no more than 10 µM.
As to `COc1ccccc1Cc1c[nH]c2ncccc12` [Compound P-0406], on Stk6, the IC50 is no more than 10 µM.
On to `O=C(c1c[nH]c2ncccc12)C1CCCCC1` [Compound P-0407], for which, on Stk6, the half-maximal inhibitory concentration (IC50) is no more than 10 µM.
Consider `COc1cccc(-c2cnc3[nH]cc(Sc4cccs4)c3c2)c1` [Compound P-0417], for which the IC50 on Stk6 is no more than 10 µM.
As to `Cc1ccc(S(=O)(=O)Nc2ccc(Cc3c[nH]c4ncccc34)cc2)cc1` [Compound P-0426], the IC50 on Stk6 and at FGFR1 was no more than 10 µM in each case.
In the case of `Cc1ccccc1-c1ccnc2[nH]cc(Sc3cccs3)c12` [Compound P-0441], the IC50 on B-Raf V600E and on Stk6 was no more than 10 µM throughout.
Take `c1coc(-c2ccnc3[nH]ccc23)c1` [Compound P-0445]: the IC50 at Stk6 was no more than 10 µM.
Regarding `O=C(c1ccc(NCC2CCCCC2)nc1)c1c[nH]c2ncccc12` [Compound P-0471], the IC50 on Stk6 is no more than 10 µM.
Take `Clc1ccnc2[nH]cc(Sc3cccs3)c12` [Compound P-0489]: the IC50 at Stk6 and at FGFR1 was no more than 10 µM throughout.
With `Cn1nc(C(C)(C)C)cc1C(=O)c1c[nH]c2nccc(-c3cccc(/C=C/C(=O)O)c3)c12` [Compound P-0546], the IC50 at Stk6 is no more than 10 µM.
For `CCCS(=O)(=O)Nc1ccc(F)c(C(=O)c2c[nH]c3ncc(-c4cccc(N(C)C)c4)cc23)c1F` [Compound P-0876, Propane-1-sulfonic acid {3-[5-(3-dimethylamino-phenyl)-1H-pyrrolo[2,3-b]pyridine-3-carbonyl]-2,4-difluoro-phenyl}-amide], the IC50 on B-Raf V600E, at Fms, on c-Raf-1, at Jnk1, on B-Raf and at Src was no more than 10 µM in each case. The IC50 at Kit and at FGFR1 was no more than 10 µM each time.
For `CCCS(=O)(=O)Nc1ccc(F)c(C(=O)c2c[nH]c3ncc(F)cc23)c1F` [Compound P-0907, Propane-1-sulfonic acid [2,4-difluoro-3-(5-fluoro-1H-pyrrolo[2,3-b]pyridine-3-carbonyl)-phenyl]-amide], the IC50 at B-Raf V600E, on c-Raf-1, on B-Raf, at Src, at Kit and on FGFR1 was no more than 10 µM throughout.
Take `CCCS(=O)(=O)Nc1cccc(C(=O)c2c[nH]c3ncc(-c4cccnc4)cc23)c1F` [Compound P-1251, Propane-1-sulfonic acid [2-fluoro-3-(5-pyridin-3-yl-1H-pyrrolo[2,3-b]pyridine-3-carbonyl)-phenyl]-amide]: the IC50 at B-Raf V600E, at Fms, on Flt1, at c-Raf-1, on Jnk1 and at B-Raf was no more than 10 µM in each case. Moreover, the IC50 at Src, at Kit and at FGFR1 was no more than 10 µM throughout.
For the molecule `CCCS(=O)(=O)Nc1ccc(F)c(C(=O)c2c[nH]c3ncc(OCCN(CC)CC)cc23)c1F` [Compound P-1254, Propane-1-sulfonic acid {3-[5-(2-diethylamino-ethoxy)-1H-pyrrolo[2,3-b]pyridine-3-carbonyl]-2,4-difluoro-phenyl}-amide], the IC50 at B-Raf V600E, at c-Raf-1, on B-Raf, on Src, at Kit and at FGFR1 was no more than 10 µM each time.
`CCCCS(=O)(=O)Nc1ccc(F)c(C(=O)c2c[nH]c3ncc(Cl)cc23)c1F` [Compound P-1265, Butane-1-sulfonic acid [3-(5-chloro-1H-pyrrolo[2,3-b]pyridine-3-carbonyl)-2,4-difluoro-phenyl]-amide]: the IC50 at B-Raf V600E, on Fms, on c-Raf-1, at B-Raf, at Src and on FGFR1 was no more than 10 µM throughout.
With `COc1cccc(C(=O)c2c[nH]c3ncc(-c4ccccc4)cc23)c1F` [Compound P-1338, (2-Fluoro-3-methoxy-phenyl)-(5-phenyl-1H-pyrrolo[2,3-b]pyridin-3-yl)-methanone], the 50% inhibitory concentration (IC50) on Fms, at c-Raf-1, on Jnk1, on B-Raf, at Src and on Kit was no more than 10 µM throughout. Besides, the IC50 at FGFR1 was no more than 10 µM.
As for `CCCC(=O)Nc1ccc(F)c(C(O)c2c[nH]c3ncc(-c4cccnc4)cc23)c1F` (stereo not shown) [Compound P-1366], the IC50 at B-Raf V600E, at Fms, on Flt1, on Jnk1, at Src and at Kit was no more than 10 µM in each case. The IC50 on FGFR1 is no more than 10 µM.

As usually defined, the IC50 is the midpoint of a concentration-inhibition curve.
